Data on 2 compounds can be found in patent publication US12629359B2 (UNIVERSITA' DEGLI STUDI DI BRESCIA, priority 2020, dated 2026).

Data set [1] addresses T1, alpha-synuclein/Synapsin III interaction (Homo sapiens, UniProt O14994+P37840).
T1 construct: expressed in transfected cells; host or cells: neuronal-differentiated (retinoic acid) human SK-N-SH neuroblastoma cells, transient transfection with Lipofectamine 3000
The experiment in a line: FLIM-FRET (donor lifetime) of alpha-synuclein/Synapsin III interaction in SK-N-SH cells. In kind it is cell-based. The following applies: 10 μM, 15 min after treatment. The method, then:
The ability of the different compound to stimulate alpha-synuclein/Synapsin III interaction was evaluated by acceptor photobleaching FRET or FLIM in neuronal-like cells. In particular, we used neuronal-differentiated SK—N—SH neuroblastoma cells transiently transfected with red fluorescent protein (RFP)-tagged human wild type alpha-synuclein and green fluorescent protein (GFP)-tagged the human 63 kDa Synapsin III isoform.
The comparison of the lifetimes of the donor alone and in presence of the acceptor allows for precise and concentration-independent measurements of FRET efficiency. Fluorescence lifetime is defined as the average time that a fluorophore spends in the excited state after the absorption of light, prior to returning to the ground state by emitting a photon. Donor fluorescence lifetime is decreased when FRET occurs between the fluorophore pair. The comparison of the lifetimes of the donor alone and in presence of the acceptor allows for precise and concentration-independent measurements of FRET efficiency (Ishikawa-Ankerhold, H. C. et al. Molecules (Basel, Switzerland) 2012, 17, 4047-4132). Human neuroblastoma SK—N—SH cells were grown in complete medium comprising Dulbecco's modified Eagle's medium with 1000 mg glucose/l supplemented with 10% heat-inactivated fetal bovine serum, 100 μg/ml penicillin and 100 μg/ml streptomycin. Cells were maintained at 37° C. under a humidified atmosphere of 5% CO2 and […]. For FRET/FLIM studies, SK—N—SH cells were seeded onto poli-D-lysine-coat 1.7 cm2 glass chamber (15000 cells per well) and were maintained in differentiation medium for ten days by daily adding 10 μM retinoic acid to the medium. […] The time-domain FLIM was measured using a Time-Correlated Single Photon Counting (TCSPC) (PicoQuant) operated with SymPhoTime 64 software (PicoQuant). […] The images of GFP fluorescence generated in ZEN software were stored and processed with SymPhoTime 64. The mean fluorescence intensities within cell body were determined using the ROI tool in SymPhoTime 64. […] The fluorescence lifetime analysis was performed in the SymPhoTime 64 software within the cell body, automatically recognized by the software as ROI 0. Individual photon arrivals were detected using a SPAD detector and events were recorded by a PicoHarp 300 TCSPC module. […] The percentage FLIM-FRET efficiency was calculated as: 100×[1−(lifetime of donor with FRET/lifetime of donor without FRET)]. For lifetime analysis, fifteen cells were recorded for each condition, included GFP alone.

The subject of data set [2] is primary mesencephalic cultures. In words: MTT cell viability assay. Format: cell-based, mouse. The following applies: 24 h. The method, then: The cytotoxic effect of compounds treatment was measured by evaluating mitochondrial dehydrogenase activity using the MTT salt assay.
Neuronal differentiated SK—N—SH cells were thus exposed to different concentrations of I-threo, IV-threo, I-erythro, V-threo and V-erythro as described above, and then used for the MTT cell viability assay.
Animals: C57BL/6J wt mice (C57BL/6J) (Charles River, Wilmington, MA) used in this study, were bred in our animal house facility at the Department of Molecular and Translational Medicine of University of Brescia. Animals were maintained under a 12h light-dark cycle at a room temperature (rt) of 22° C. and had ad libitum food and water. All experiments were made in accordance to Directive 2010/63/EU of the European Parliament and of the Council of 22 Sep. 2010 on the protection of animals used. All experimental and surgical procedures conformed to the National Research Guide for the Care and Use of Laboratory Animals were approved by the Animal Research Committees of the University of Brescia (Protocol Permit 719/2015-PR). All achievements were made to minimize animal suffering and to reduce the number of animals used. Primary neuronal cultures from mesencephalic tissues were dissected from C57BL/6J 13-days embryos. Briefly, after mechanical dissociation the single cells were re-suspended in Neurobasal medium containing 100 μg/ml penicillin, 100 μg/ml streptomycin, 0.5 mM glutamine and 1% B27 supplement. Cells were then centrifuged and cell count and viability assays were performed using the Trypan Blue exclusion test. Cells were seeded onto poly-D-lysine-coated glass coverslides in 24-well plates (14 μg/mL) for immunocytochemistry (100000 cells/well). Cells were maintained at 37° C. under a humidified atmosphere of 5% CO2 and […] for at least 10 days in vitro (DIV 10) prior to their use to allow their maturation. At DIV 10, cells were treated with increasing concentrations (0.01 μM-0.1 μM-1 μM-[…]) of the different compounds (I-threo, IV-threo, I-erythro, V-threo, VI-threo). Twenty-four h after the treatments, culture medium was removed and 300 μL of MTT 0.5 mg/mL diluted in culture medium was added to each well. After 90′ incubation at 37° C., the medium was removed and 250 μL aliquots of DMSO were added to each well to solubilize the formazan crystals. Absorbance was measured at 570 nm using a microplate reader. Cell viability was expressed as absorbance value.
For orientation: Tetrazolium dyes change colour on reduction, which living cells bring about.

Structures are written as SMILES. Entries after “also recorded” stand apart in the source; their conditions may differ.

T1 sequence (O14994 whole entry, one chain of several): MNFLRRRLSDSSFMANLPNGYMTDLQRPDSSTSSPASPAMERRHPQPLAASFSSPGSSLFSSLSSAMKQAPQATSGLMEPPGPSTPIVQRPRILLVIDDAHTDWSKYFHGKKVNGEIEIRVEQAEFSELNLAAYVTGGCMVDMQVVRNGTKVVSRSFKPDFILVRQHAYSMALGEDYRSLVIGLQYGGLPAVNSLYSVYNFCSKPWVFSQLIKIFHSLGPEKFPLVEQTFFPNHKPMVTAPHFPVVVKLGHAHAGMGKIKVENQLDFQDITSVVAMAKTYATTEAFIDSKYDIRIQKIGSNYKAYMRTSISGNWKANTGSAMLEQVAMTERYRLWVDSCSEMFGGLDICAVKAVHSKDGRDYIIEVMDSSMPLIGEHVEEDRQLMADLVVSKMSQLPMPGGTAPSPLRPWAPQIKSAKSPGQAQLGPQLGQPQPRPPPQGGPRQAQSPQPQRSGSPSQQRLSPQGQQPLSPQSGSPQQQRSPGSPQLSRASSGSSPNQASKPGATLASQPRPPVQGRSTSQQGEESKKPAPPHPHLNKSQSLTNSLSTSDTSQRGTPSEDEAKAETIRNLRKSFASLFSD

In the case of `COC(=O)[C@H](c1ccc(C)cc1)C1CCCCN1.Cl` (stereo partly drawn) [I-erythro], the “stimulation of alpha-synuclein/Synapsin III interaction (FLIM), in words” value in data set [1] is listed as “did not stimulate alpha-synuclein/Synapsin III interaction”. For the same compound, the “cell viability (MTT) at 100 μM” value in data set [2] is listed as “did not result toxic”.

Turning to `COC(=O)[C@@H](c1ccc(C)cc1)C1CCCCN1.Cl` (stereo partly drawn) [I-threo, threo methyl 2-(piperidin-2-yl)-2-(p-tolyl)acetate hydrochloride], in data set [1], the “% decrease of tau amplitude (donor lifetime) vs MPH treated cells” value is recorded as -8.4%; the “% decrease of tau amplitude (donor lifetime) vs untreated cells” value is listed as -11.95%; the “stimulation of alpha-synuclein/Synapsin III interaction (FLIM), in words” value was “able to promote alpha-synuclein/synapsin III interaction”. For the same compound, the “cell viability (MTT) at 100 μM” value in data set [2] (hydrochloride) is on record as “reduce the cell viability; also recorded: significant decrease in cell viability”. Besides, the “toxic effects (MTT) at the working concentrations” value in data set [2] (concentrations reducing aggregation or stimulating interaction) is listed as “did not exhibit toxic effects”.
